Results on 29 compounds are retold here after patent US20240174679A1, “HETEROAROYL AMIDES AS LRRK2 INHIBITORS, PHARMACEUTICAL COMPOSITIONS, AND USES THEREOF” (MERCK SHARP & DOHME LLC, priority 2021, published 2024).

This test has as its target GST tagged truncated human mutant G2019S LRRK2 (Homo sapiens (Human), UniProt Q5S007, G2019S). The test is described as follows: LRRK2 Km ATP LanthaScreen Assay. The format is biochemical. As to conditions: 134 μM ATP (Km ATP), LRRKtide substrate, negative log of mean IC50 (molar). As for the experimental part: Unless otherwise noted, all reactions are magnetically stirred. Unless otherwise noted, when diethyl ether is used in the experiments described below, it is Fisher ACS certified material and is stabilized with BHT. Unless otherwise noted, “concentrated” and/or “solvent removed under reduced pressure” means evaporating the solvent from a solution or mixture using a rotary evaporator or vacuum pump. Unless otherwise noted, flash chromatography is carried out on a Teledyne Isco (Lincoln, NE), Analogix (Burlington, WI), or Biotage (Stockholm, SWE) automated chromatography system using a commercially available cartridge as the column. Columns may be purchased from Teledyne Isco, Analogix, Biotage, Varian (Palo Alto, CA), or Supelco (Bellefonte, PA) and are usually filled with silica gel as the stationary phase. Reversed phase preparative HPLC conditions, where used, can be found at the end of each experimental section. Aqueous solutions were concentrated on a Genevac (Ipswich, ENG) or by freeze-drying/lyophilization. Unless otherwise noted, all LRRK2 pIC50 data presented in tables refers to the LRRK2 G2019S Km ATP LanthaScreen™ assay (Life Technologies Corp., Carlsbad, CA) that is described in the Biological Assay section.
Biological Assay: LRRK2 Km ATP LanthaScreen™ Assay
Compound potency against LRRK2 kinase activity was determined using LanthaScreen™ technology from Life Technologies Corporation (Carlsbad, CA) using a GST20 tagged truncated human mutant G2019S LRRK2 in the presence of the fluorescein-labeled peptide substrate LRRKtide® (LRRK2 phosphorylated ezrin/radixin/moesin (ERM)), also from Life Technologies. The data presented for the Km ATP LanthaScreen™ Assay represents mean IC50 values based on several test results and may have reasonable deviations depending on the specific conditions and reagents used. Km is the Michaelis constant of an enzyme and is defined as the concentration of native substrate (ATP for a kinase) which permits the enzyme to achieve half Vmax (Vmax=rate of reaction when the enzyme is saturated with substrate). IC50 (half-maximal inhibitory concentration) represents the concentration of inhibitor required to inhibit LRRK2 kinase activity by 50%. Assays were performed in the presence of 134 μM ATP (Km ATP). Upon completion, the assay was stopped, and phosphorylated substrate detected with a terbium (Tb)-labeled anti-pERM antibody (cat. no. PV4898). The compound dose response was prepared by diluting a 10 mM stock of compound to a maximum concentration of 9.99 μM in 100% DMSO, followed by custom fold serial dilution in DMSO nine times. 20 nL of each dilution was spotted via a Labcyte Echo onto a 384-well black-sided plate (Corning 3575) followed by 15 μL of a 1.25 nM enzyme solution in 1× assay buffer (50 mM Tris pH 8.5, 10 mM MgCl2, 0.01% Brij-35, 1 mM EGTA, 2 mM dithiothreitol, 0.05 mM sodium orthovanadate). Following a 15-min incubation period at rt, the kinase reaction was started with the addition of 5 μL of 400 nM fluorescein-labeled LRRKtide® (LRRK2 phosphorylated ezrin/radixin/moesin (ERM)) peptide substrate and 134 μM ATP solution in 1× assay buffer. The reaction was allowed to progress at ambient temperature for 90 min. The reaction was then stopped by the addition of 20 μL of TR-FRET Dilution Buffer (Life Technologies, Carlsbad, CA) containing 2 nM Tb-labeled anti-phospho LRRKtide® (LRRK2 phosphorylated ezrin/radixin/moesin (ERM)) antibody and 10 mM EDTA (Life Technologies, Carlsbad, CA). After an incubation period of 1 h at rt, the plate was read on an EnVision® multimode plate reader (Perkin Elmer, Waltham, MA) with an excitation wavelength of 337 nm (Laser) and a reading emission at both 520 and 495 nm. Compound IC50 values were interpolated from nonlinear regression best-fits of the log of the final compound concentration, plotted as a function of the 520/495-nm emission ratio using activity base “Abase”). Abase uses a 4 parameter (4P) logistic fit based on the Levenberg-Marquardt algorithm. […]

Sequence of GST tagged truncated human mutant G2019S LRRK2 (Q5S007 970-2527 G2019S): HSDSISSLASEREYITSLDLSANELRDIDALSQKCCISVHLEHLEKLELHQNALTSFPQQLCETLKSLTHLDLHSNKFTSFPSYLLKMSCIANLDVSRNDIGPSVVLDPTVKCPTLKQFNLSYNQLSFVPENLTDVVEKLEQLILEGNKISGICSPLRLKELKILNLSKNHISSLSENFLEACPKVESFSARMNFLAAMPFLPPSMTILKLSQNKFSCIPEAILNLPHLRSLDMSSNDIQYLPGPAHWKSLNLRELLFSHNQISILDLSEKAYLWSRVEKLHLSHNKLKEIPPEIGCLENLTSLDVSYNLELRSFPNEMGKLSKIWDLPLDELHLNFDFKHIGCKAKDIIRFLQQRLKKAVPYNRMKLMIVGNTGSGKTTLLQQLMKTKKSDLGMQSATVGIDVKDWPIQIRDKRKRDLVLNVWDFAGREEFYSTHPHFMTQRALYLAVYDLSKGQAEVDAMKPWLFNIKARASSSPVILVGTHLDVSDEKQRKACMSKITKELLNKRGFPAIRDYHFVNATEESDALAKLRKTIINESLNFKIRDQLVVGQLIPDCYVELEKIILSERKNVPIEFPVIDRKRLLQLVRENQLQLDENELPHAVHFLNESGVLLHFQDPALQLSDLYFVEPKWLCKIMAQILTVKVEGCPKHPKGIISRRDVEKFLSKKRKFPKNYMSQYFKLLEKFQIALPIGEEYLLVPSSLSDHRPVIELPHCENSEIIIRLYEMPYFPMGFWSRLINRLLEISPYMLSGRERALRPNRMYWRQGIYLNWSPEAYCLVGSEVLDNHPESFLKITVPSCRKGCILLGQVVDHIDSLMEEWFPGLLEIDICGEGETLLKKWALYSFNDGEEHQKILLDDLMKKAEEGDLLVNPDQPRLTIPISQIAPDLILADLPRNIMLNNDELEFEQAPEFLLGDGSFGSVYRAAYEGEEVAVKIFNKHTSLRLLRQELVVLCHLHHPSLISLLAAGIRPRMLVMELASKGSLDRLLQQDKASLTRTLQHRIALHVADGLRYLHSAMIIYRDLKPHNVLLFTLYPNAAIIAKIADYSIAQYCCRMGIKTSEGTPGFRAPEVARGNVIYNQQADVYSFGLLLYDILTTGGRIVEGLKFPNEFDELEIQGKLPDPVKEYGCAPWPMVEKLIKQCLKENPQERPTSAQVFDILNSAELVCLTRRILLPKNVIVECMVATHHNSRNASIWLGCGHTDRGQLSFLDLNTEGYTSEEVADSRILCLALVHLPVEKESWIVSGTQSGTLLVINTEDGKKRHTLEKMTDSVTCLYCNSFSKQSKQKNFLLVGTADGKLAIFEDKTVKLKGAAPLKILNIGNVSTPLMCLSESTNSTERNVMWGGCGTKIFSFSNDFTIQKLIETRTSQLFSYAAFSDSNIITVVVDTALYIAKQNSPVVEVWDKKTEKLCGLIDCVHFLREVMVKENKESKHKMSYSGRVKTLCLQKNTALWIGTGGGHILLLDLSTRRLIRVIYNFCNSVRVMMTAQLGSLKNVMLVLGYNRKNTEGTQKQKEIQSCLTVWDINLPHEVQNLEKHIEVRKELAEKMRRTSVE

As for `CC1(Cn2cc(NC(=O)c3csc(-c4cn[nH]c4)n3)cn2)CCC1` [Example 1-34, N-{1-[(1-methylcyclobu-tyl)methyl]-1H-pyrazol-4-yl}-2-(1H-pyrazol-4-yl)-1,3-thiazole-4-carboxamide], the “LRRK2 pIC50” value is given as 7.92.
In the case of `O=C(Nc1cnn(CC2CC(F)(F)C2)c1)c1csc(-c2cn[nH]c2)n1` [Example 1-35, N-{1-[(3,3-difluorocyclobu-tyl)methyl]-1H-pyrazol-4-yl}-2-(1H-pyrazol-4-yl)-1,3-thiazole-4-carboxamide] it was 7.77; in that of `CN(C)C(=O)c1nn(C)cc1NC(=O)c1csc(-c2cn[nH]c2)n1` [Example 1-36, N-[3-(dimethylcarba-moyl)-1-methyl-1H-pyrazol-4-yl]-2-(1H-pyrazol-4-yl)-1,3-thiazole-4-carboxamide], 7.25; in that of `COc1nn(C2CC2)cc1NC(=O)c1csc(-c2cn[nH]c2)n1` [Example 1-37, N-(1-cyclopropyl-3-methoxy-1H-pyrazol-4-yl)-2-(1H-pyrazol-4-yl)-1,3-thiazole-4-carboxamide], 7.51.
On to `O=C(Nc1cn(C2CC2)nc1C(F)F)c1csc(-c2cn[nH]c2)n1` [Example 1-38, N-[1-cyclopropyl-3-(difluoromethyl)-1H-pyrazol-4-yl]-2-(1H-pyrazol-4-yl)-1,3-thiazole-4-carboxamide], for which the “LRRK2 pIC50” value worked out at 8.23.
Consider `CC(C)n1cc(NC(=O)c2coc(-c3cn[nH]c3)n2)cn1` [Example 1-39, N-[1-(1-methylethyl)-1H-pyrazol-4-yl]-2-(1H-pyrazol-4-yl)-1,3-oxazole-4-carboxamide], for which the “LRRK2 pIC50” value is given as 6.36.
The value for `Cn1cc(NC(=O)c2csc(-c3cn[nH]c3)n2)c(C(F)(F)F)n1` [Example 1-40, N-[1-methyl-3-(trifluoromethyl)-1H-pyrazol-4-yl]-2-(1H-pyrazol-4-yl)-1,3-thiazole-4-carboxamide] was 7.10.
The value for `Cc1nn(C)cc1NC(=O)c1csc(-c2cn[nH]c2)n1` [Example 1-41, N-(1,3-dimethyl-1H-pyrazol-4-yl)-2-(1H-pyrazol-4-yl)-1,3-thiazole-4-carboxamide] was 7.23.
The value for `Cn1cc(NC(=O)c2csc(-c3cn[nH]c3)n2)c(C2CC2)n1` [Example 1-42, N-(3-cyclopropyl-1-methyl-1H-pyrazol-4-yl)-2-(1H-pyrazol-4-yl)-1,3-thiazole-4-carboxamide] was 7.74; that for `O=C(Nc1cnn(CC2(F)CCC2)c1)c1csc(-c2cn[nH]c2)n1` [Example 1-43, N-{1-[(1-fluorocyclobutyl)methyl]-1H-pyrazol-4-yl}-2-(1H-pyrazol-4-yl)-1,3-thiazole-4-carboxamide] was 7.64.
Take `CS(=O)(=O)CC1(Cn2cc(NC(=O)c3csc(-c4cn[nH]c4)n3)cn2)CCC1` [Example 1-44, N-[1-({1-[(methylsulfonyl)methyl]cyclobutyl}methyl)-1H-pyrazol-4-yl]-2-(1H-pyrazol-4-yl)-1,3-thiazole-4-carboxamide]: the “LRRK2 pIC50” value turned out to be 7.91.
In the case of `O=C(Nc1cnn(Cc2ccc(F)cc2)c1)c1coc(-c2cn[nH]c2)n1` [Example 1-45, N-[1-(4-fluorobenzyl)-1H-pyrazol-4-yl]-2-(1H-pyrazol-4-yl)-1,3-oxazole-4-carboxamide] it was 6.77; in that of `CC(C)n1cc(NC(=O)c2csc(-c3cn[nH]c3)n2)c(OCC(F)F)n1` [Example 1-46, N-[3-(2,2-difluoroethoxy)-1-(1-methylethyl)-1H-pyrazol-4-yl]-2-(1H-pyrazol-4-yl)-1,3-thiazole-4-carboxamide], 7.57; in that of `CC(C1CC1)n1cc(NC(=O)c2csc(-c3cn[nH]c3)n2)c(C(F)F)n1` (centres unmarked) [Example 3-1, N-(1-(1-Cyclopropylethyl)-3-(difluoromethyl)-1H-pyrazol-4-yl)-2-(1H-pyrazol-4-yl)thiazole-4-carboxamide], 7.27.
The value for `O=C(Nc1cn(C2CCC2)nc1C1CC1)c1csc(-c2cn[nH]c2)n1` [Example 3-2, N-(1-cyclobutyl-3-cyclopropyl-1H-pyrazol-4-yl)-2-(1H-pyrazol-4-yl)-1,3-thiazole-4-carboxamide] was 8.35; that for `O=C(Nc1cnn(C2CCC2)c1C1CC1)c1csc(-c2cn[nH]c2)n1` [Example 3-3, N-(1-cyclobutyl-5-cyclopropyl-1H-pyrazol-4-yl)-2-(1H-pyrazol-4-yl)-1,3-thiazole-4-carboxamide] was 7.16; that for `O=C(Nc1cnn(C2CC2)c1)c1cccc(-c2cnn(CC(F)(F)F)c2)n1` [Example 4-1, N-(1-Cyclopropyl-1H-pyrazol-4-yl)-6-(1-(2,2,2-trifluoroethyl)-1H-pyrazol-4-yl)picolinamide] was 7.98.
The value for `Cc1nc(C(=O)Nc2cnn(C3CCC3)c2)ccc1C#N` [Example 4-2, 5-cyano-N-(1-cyclobutyl-1H-pyrazol-4-yl)-6-methylpyridine-2-carboxamide] was 5.07; that for `CC(C)Nc1nc(C(=O)Nc2cnn(C3CCC3)c2)cs1` [Example 4-3, N-(1-cyclobutyl-1H-pyrazol-4-yl)-2-[(1-methylethyl)amino]-1,3-thiazole-4-carboxamide] was 6.19.
Take `O=C(Nc1cnn(C2CCC2)c1)c1coc(-c2ccccc2)n1` [Example 4-4, N-(1-cyclobutyl-1H-pyrazol-4-yl)-2-phenyl-1,3-oxazole-4-carboxamide]: the “LRRK2 pIC50” value is 5.68.
In the case of `CSc1nc(C(=O)Nc2cnn(C3CCC3)c2)cs1` [Example 4-5, N-(1-cyclobutyl-1H-pyrazol-4-yl)-2-(methylsulfanyl)-1,3-thiazole-4-carboxamide] it was 5.82.
Consider `CC(C)Oc1cccc(C(=O)Nc2cnn(C3CCC3)c2)n1` [Example 4-6, N-(1-cyclobutyl-1H-pyrazol-4-yl)-6-(1-methylethoxy) pyridine-2-carboxamide], for which the “LRRK2 pIC50” value is recorded as 7.10.
As for `O=C(Nc1cnn(C2CCC2)c1)c1ccn(-c2ccccc2)n1` [Example 4-7, N-(1-cyclobutyl-1H-pyrazol-4-yl)-1-phenyl-1H-pyrazole-3-carboxamide], the “LRRK2 pIC50” value came out at 5.56.
The value for `CC(=O)Nc1cccc(C(=O)Nc2cnn(C3CCC3)c2)n1` [Example 4-8, 6-(acetylamino)-N-(1-cyclobutyl-1H-pyrazol-4-yl)pyridine-2-carboxamide] was 6.33.
In the case of `O=C(Nc1cnn(C2CCC2)c1)c1csc(-c2ccccc2)n1` [Example 4-9, N-(1-cyclobutyl-1H-pyrazol-4-yl)-2-phenyl-1,3-thiazole-4-carboxamide] it was 6.70.
As for `COc1cccc(C(=O)Nc2cnn(C3CCC3)c2)n1` [Example 4-10, N-(1-cyclobutyl-1H-pyrazol-4-yl)-6-methoxypyridine-2-carboxamide], the “LRRK2 pIC50” value amounted to 5.35.
The value for `O=C(Nc1cnn(C2CCC2)c1)c1ccn(-c2ncccn2)n1` [Example 4-11, N-(1-cyclobutyl-1H-pyrazol-4-yl)-1-pyrimidin-2-yl-1H-pyrazole-3-carboxamide] was 5.71.
As to `CC(=O)Nc1nc(C(=O)Nc2cnn(C3CCC3)c2)cs1` [Example 4-12, 2-(acetylamino)-N-(1-cyclobutyl-1H-pyrazol-4-yl)-1,3-thiazole-4-carboxamide], the “LRRK2 pIC50” value stood at 6.18.
In the case of `O=C(Nc1cnn(C2CCC2)c1)c1cccc(-n2cccn2)n1` [Example 4-13, N-(1-cyclobutyl-1H-pyrazol-4-yl)-6-(1H-pyrazol-1-yl)pyridine-2-carboxamide], the “LRRK2 pIC50” value stood at 6.76.
